Assay results as given in patent publication US12673946B2, “Pyrimidin-4(3H)-one derivatives as TRPV4 antagonists” (RaQualia Pharma Inc., priority 2020, dated 2026).

Molecular target: T1, human TRPV4 (Homo sapiens, UniProt Q9HBA0)
T1 construct: host or cells: tetracycline-inducible Flp-In T-REx 293 cells
Assay: Hypotonicity-induced Ca2+ influx (Fluo-4, FDSS)
Format: cell-based
Description: Hypotonicity-Induced Ca^2+ Influx
TRPV4 channel activation/opening results in an influx of Ca^2+ (Liedtke, W. et al., 2000 (NPL 1)). The resulting changes in intracellular calcium are monitored using a Ca^2+ sensitive fluorescent dye Fluo-4 (Invitrogen). Dye loaded cells are treated with the test compounds for 5 minutes prior to the addition of a hypotonic solution and the inhibition of the hypotonicity-induced activation is recorded.
Forty microL of tetracycline-inducible Flp-In T-REx 293 cells (Invitrogen) stably expressing human TRPV4 are seeded onto the poly-D-lysine coated 384-well plate (Corning) at a density of 10,000 cells per well. The following day, TRPV4 expression is induced by adding 0.5 microg/mL tetracycline for 20-24 hours. On the day of the experiment, the media is removed and replaced with 40 microL of dye loading buffer [1 microM Fluo-4 AM (Invitrogen), 0.01% Pluronic F-127, and 20 mM HEPES in Hanks' balanced salt solutions (HBSS; Invitrogen)] and then the cells are incubated for 60 minutes at 25° C. Dye is then removed and replaced with 20 microL of assay buffer (20 mM HEPES in HBSS). Five minutes prior to the fluorescence measurement, 10 microL of test compound is added to the cells. Using the FDSS instrument (Hamamatsu Photonics), 30 microL of hypotonic solution (90 mM D-mannitol and 1.26 mM CaCl2 in ultrapure water) is added 30 seconds after the start of measurement. The calcium flux signal is recorded for a total of 4.5 minutes.

[1] = Flp-In T-REx 293 cells expressing human TRPV4, examples listed under heading 'Human IC50<50 nM'
[2] = Flp-In T-REx 293 cells stably expressing human TRPV4, compounds listed by potency bin (<10 nM Tables 96-1/96-2, <3 nM Table 97)

T1 sequence (Q9HBA0 whole entry): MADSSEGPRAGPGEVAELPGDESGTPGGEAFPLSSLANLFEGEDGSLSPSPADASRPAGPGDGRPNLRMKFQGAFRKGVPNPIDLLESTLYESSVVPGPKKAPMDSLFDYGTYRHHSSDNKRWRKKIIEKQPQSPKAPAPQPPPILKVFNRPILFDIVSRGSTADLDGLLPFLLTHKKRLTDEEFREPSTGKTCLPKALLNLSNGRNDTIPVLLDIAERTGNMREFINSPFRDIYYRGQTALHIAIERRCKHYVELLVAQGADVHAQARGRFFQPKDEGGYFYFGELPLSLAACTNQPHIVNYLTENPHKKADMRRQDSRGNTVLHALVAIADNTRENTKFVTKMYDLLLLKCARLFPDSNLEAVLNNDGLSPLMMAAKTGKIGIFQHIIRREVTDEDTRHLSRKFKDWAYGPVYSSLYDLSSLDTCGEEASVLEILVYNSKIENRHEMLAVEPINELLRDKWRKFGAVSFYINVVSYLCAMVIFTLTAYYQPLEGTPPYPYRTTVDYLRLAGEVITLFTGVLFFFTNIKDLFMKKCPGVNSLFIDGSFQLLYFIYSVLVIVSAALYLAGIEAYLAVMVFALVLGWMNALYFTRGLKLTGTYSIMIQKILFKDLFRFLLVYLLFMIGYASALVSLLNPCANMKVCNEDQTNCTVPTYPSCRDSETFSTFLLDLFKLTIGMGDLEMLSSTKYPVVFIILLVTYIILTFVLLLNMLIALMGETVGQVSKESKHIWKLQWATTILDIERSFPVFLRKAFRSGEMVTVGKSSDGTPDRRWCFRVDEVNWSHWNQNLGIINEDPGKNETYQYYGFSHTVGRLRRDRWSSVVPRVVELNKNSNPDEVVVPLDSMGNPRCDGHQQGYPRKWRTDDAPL

| SMILES | IC50 [1] | IC50 [2] |
| --- | --- | --- |
| O=C([C@H](O)c1cccc(Cl)c1)N1CCc2nc(C3(c4cccc(Oc5ccccc5)c4)CC3)[nH]c(=O)c2C1 [14-4] | < 50 nM | < 10 nM |
| O=C(C(O)c1cccc(C(F)(F)F)c1F)N1CCCc2nc(C3(c4ccccc4)CC3)[nH]c(=O)c2C1 (stereo not drawn) [17-20] | < 50 nM | < 10 nM |
| O=C([C@H](O)c1cccc(C(F)(F)F)c1)N1CCc2nc(C3(c4cccc(Cl)c4)CC3)[nH]c(=O)c2C1 [3-72] | < 50 nM | – |
| O=C([C@H](O)c1cccc(C(F)(F)F)c1)N1CCCc2nc(C3(c4cccc(C5CCCC5)c4)CC3)[nH]c(=O)c2C1 [31-5] | < 50 nM | < 3 nM |
| O=C([C@H](O)c1cccc(Cl)c1)N1CCCc2nc(C3(c4cccc(-c5ccc(F)cc5)c4)CC3)[nH]c(=O)c2C1 [40-9] | < 50 nM | < 3 nM |
| N#Cc1cc(Cl)cc(-c2cccc(CC(=O)N3CCCc4nc(C5(c6ccccc6)CC5)[nH]c(=O)c4C3)c2)c1 [17-138] | < 50 nM | < 10 nM |
| O=C([C@H](O)c1cccc(-c2ccc(Cl)cc2)c1)N1CCCc2nc(C3(c4ccccc4)CC3)[nH]c(=O)c2C1 [49-18] | < 50 nM | < 3 nM |
| CC(C)c1cccc(C2(c3nc4c(c(=O)[nH]3)CN(C(=O)C(O)c3cccc(C(C)(C)C)c3)CCC4)CC2)c1 (stereo not drawn) [17-8] | < 50 nM | < 3 nM |
| O=C(C(O)c1cccc(C(F)(F)F)c1F)N1CCc2nc(C3(c4cccc(F)c4)CC3)[nH]c(=O)c2C1 (stereo not drawn) [14-29] | < 50 nM | – |
| O=C(N1CCCc2nc(C3(c4cncc(-c5ccccc5)c4)CC3)[nH]c(=O)c2C1)C(F)(F)c1cccc(Cl)c1 [22-2] | < 50 nM | < 3 nM |
| O=C([C@H](O)c1cccc(-c2cccc(C(F)(F)F)n2)c1)N1CCc2nc(C3(c4ccccc4)CC3)[nH]c(=O)c2C1 [44-78] | < 50 nM | < 3 nM |
| O=C([C@H](O)c1cccc(-c2ccc3cnccc3c2)c1)N1CCc2nc(C3(c4ccccc4)CC3)[nH]c(=O)c2C1 [44-89] | < 50 nM | – |
| O=C([C@H](O)c1cccc(-c2cccc(OC(F)(F)F)c2)c1)N1CCc2nc(C3(c4cccc(Cl)c4)CC3)[nH]c(=O)c2C1 [45-7] | < 50 nM | < 10 nM |
| O=C(Cc1cccc(-c2ccc(OC(F)(F)F)cc2)c1)N1CCCc2nc(C3(c4ccccc4)CC3)[nH]c(=O)c2C1 [17-134] | < 50 nM | < 10 nM |
| O=C([C@H](O)c1cccc(Cl)c1)N1CCc2nc(C3(c4cccc(Br)c4)CC3)[nH]c(=O)c2C1 [14-26] | < 50 nM | – |
| O=C(C(O)c1ccnc(N2CCCCCC2)c1)N1CCc2nc(C3(c4ccccc4)CC3)[nH]c(=O)c2C1 (stereo not drawn) [11-3] | < 50 nM | – |
| Cc1cc(-c2cccc([C@@H](O)C(=O)N3CCCc4nc(C5(c6ccccc6)CC5)[nH]c(=O)c4C3)c2)ccc1Cl [49-51] | < 50 nM | < 3 nM |
| O=C(N1CCCc2nc(C3(c4cccc(Cl)c4)CC3)[nH]c(=O)c2C1)C(F)(F)c1cccc(Cl)c1 [20-2] | < 50 nM | < 3 nM |
| CC(C)c1csc(C2(c3nc4c(c(=O)[nH]3)CN(C(=O)C(F)(F)c3cccc(Cl)c3F)CCC4)CC2)c1 [21-6] | < 50 nM | < 10 nM |
| O=C([C@H](O)c1cccc(C(F)(F)F)c1)N1CCCc2nc(C3(c4cccc(-c5ccc(CN6CCCC6)cc5)c4)CC3)[nH]c(=O)c2C1 [42-52] | < 50 nM | – |
| O=C([C@H](O)c1cccc(Cl)c1)N1CCc2nc(C3(c4cncc(C5CCC(F)(F)CC5)c4)CC3)[nH]c(=O)c2C1 [25-4] | < 50 nM | < 10 nM |
| Cc1cccc(-c2cccc(C3(c4nc5c(c(=O)[nH]4)CN(C(=O)[C@H](O)c4cccc(C(F)(F)F)c4)CCC5)CC3)c2)c1 [42-64] | < 50 nM | < 10 nM |

| SMILES | IC50 [1] | IC50 [2] |
| --- | --- | --- |
| O=C([C@H](O)c1cccc(-c2ccc(Cl)c(Cl)c2)c1)N1CCc2nc(C3(c4ccccc4)CC3)[nH]c(=O)c2C1 [44-101] | < 50 nM | < 10 nM |
| O=C(C(O)c1cccc(SC(F)(F)F)c1)N1CCCc2nc(C3(c4cccs4)CC3)[nH]c(=O)c2C1 (stereo not drawn) [18-6] | < 50 nM | < 10 nM |
| O=C([C@H](O)c1cccc(-c2csc3ccccc23)c1)N1CCCc2nc(C3(c4cccc(C5CCCCC5)c4)CC3)[nH]c(=O)c2C1 [52-6] | < 50 nM | < 10 nM |
| O=C(C(O)c1cccc(SC(F)(F)F)c1)N1CCCc2nc(C3(c4ccccc4)CC3)[nH]c(=O)c2C1 (stereo not drawn) [17-38] | < 50 nM | < 10 nM |
| O=C(C(O)c1cccc(-c2cccc(C(F)(F)F)c2Cl)c1)N1CCc2nc(C3(c4ccccc4)CC3)[nH]c(=O)c2C1 (stereo not drawn) [44-46] | < 50 nM | – |
| CC(C)(C)c1cccc(C(O)C(=O)N2CCCc3nc(C4(c5ccccc5)CC4)[nH]c(=O)c3C2)c1 (stereo not drawn) [17-47] | < 50 nM | – |
| O=C([C@H](O)c1cccc(-c2cccc(OC(F)(F)F)c2)c1)N1CCCc2nc(C3(c4cc(C5CCCCC5)cs4)CC3)[nH]c(=O)c2C1 [54-11] | < 50 nM | < 10 nM |
| CC(C)(C)c1cccc(C(O)C(=O)N2CCc3nc(C4(c5cccc(Cl)c5)CC4)[nH]c(=O)c3C2)c1 (stereo not drawn) [14-11] | < 50 nM | < 10 nM |
| O=C([C@H](O)c1cccc(-c2cc(F)cc(Cl)c2)c1)N1CCCc2nc(C3(c4ccccc4)CC3)[nH]c(=O)c2C1 [49-27] | < 50 nM | < 3 nM |
| O=C([C@H](O)c1cccc(Cl)c1)N1CCc2nc(C3(c4cncc(-c5ccccc5)c4)CC3)[nH]c(=O)c2C1 [16-1] | < 50 nM | < 3 nM |
| O=C(C(O)c1cccc(-c2ccc(Cl)cc2)c1)N1CCc2nc(C3(c4ccccc4)CC3)[nH]c(=O)c2C1 (stereo not drawn) [44-36] | < 50 nM | – |
| O=C(C(O)c1cccc(-c2ccc(Cl)c(C(F)(F)F)c2)c1)N1CCc2nc(C3(c4ccccc4)CC3)[nH]c(=O)c2C1 (stereo not drawn) [44-5] | < 50 nM | < 10 nM |
| O=C([C@H](O)c1cccc(C(F)(F)F)c1)N1CCCc2nc(C3(c4cccc(-c5cnn(C(F)F)c5)c4)CC3)[nH]c(=O)c2C1 [42-21] | < 50 nM | < 10 nM |
| O=C(C(O)c1cccc(-c2cc(F)cc(F)c2)c1)N1CCc2nc(C3(c4ccccc4)CC3)[nH]c(=O)c2C1 (stereo not drawn) [44-45] | < 50 nM | – |
| O=C([C@H](O)c1cccc(C(F)(F)F)c1)N1CCCc2nc(C3(c4cncc(-c5cnsc5)c4)CC3)[nH]c(=O)c2C1 [43-2] | < 50 nM | – |
| O=C(C(O)c1cccc(S(F)(F)(F)(F)F)c1)N1CCCc2nc(C3(c4ccccc4)CC3)[nH]c(=O)c2C1 (stereo not drawn) [17-41] | < 50 nM | < 10 nM |
| O=C(Cc1cccc(-c2ccc(Cl)cc2)c1)N1CCCc2nc(C3(c4ccccc4)CC3)[nH]c(=O)c2C1 [17-135] | < 50 nM | < 10 nM |
| O=C(Cc1cccc(Oc2ccccc2)c1)N1CCCc2nc(C3(c4ccccc4)CC3)[nH]c(=O)c2C1 [17-144] | < 50 nM | – |
| O=C([C@H](O)c1cccc(-c2cccc(Cl)c2)c1)N1CCCc2nc(C3(c4cccc(Cl)c4)CC3)[nH]c(=O)c2C1 [50-14] | < 50 nM | < 10 nM |
| O=C(C(O)c1cccc(SC(F)(F)F)c1)N1CCc2nc(C3(c4cccc(F)c4)CC3)[nH]c(=O)c2C1 (stereo not drawn) [14-27] | < 50 nM | – |
| CC(C)(C)c1cccc(C(O)C(=O)N2CCCc3nc(C4(c5cccs5)CC4)[nH]c(=O)c3C2)c1 (stereo not drawn) [18-7] | < 50 nM | < 10 nM |
| N#Cc1cc(-c2cccc(C3(c4nc5c(c(=O)[nH]4)CN(C(=O)[C@H](O)c4cccc(C(F)(F)F)c4)CCC5)CC3)c2)ccc1F [42-66] | < 50 nM | < 3 nM |
